How the values were obtained:
Assay in all cases: MTT cell death assay, chemotherapeutic with and without MADD siRNA knockdown
Type in all cases: cell-based
[1] = tested on: AGS gastric adenocarcinoma cells; settings: siRNA 10 nM
Procedure: (§1) Cells are cultured and maintained at 37° C. in a humidified atmosphere containing 5% CO2 as described above. […] After 12-18 hours (Day 1), cells are transfected with Scramble or MADD siRNA at 10 nM concentration. The sequences of siRNAs (double-stranded) used are:
(§2) On Day 4, when cells are properly adhered and retained their shape in 96-well plates, drugs are added. All drugs are diluted in complete media on the same day prior to the addition to the cells. In untreated cells, media is replaced with complete media. Two hundred μl volume of media (with or without drugs) is used for the drug treatment assay. Plates are incubated 24 hours, 48 hours and 72 hours at 37° C. in humidified CO2 incubator.
(§3) An MTT assay is performed to determine relative survival after drug treatment as described above. MTT (3-[4,5-Dimethylthiazol-2-yl]-2,5-diphenyltetrazolium bromide; Thiazolyl blue) is purchased from Sigma Aldrich (Cat number: M5655). […] Ten μl of MTT solution is added per well of 96-well plate. Plates are incubated for 2 hours at 37° C. in the humidified CO2 incubator. After 2 hours, media is aspirated using vacuum inside the biosafety hood. Purple colored crystals formed in viable cells are dissolved by adding 100 μl of Dimethyl sulfoxide (Thermo Fisher Scientific; Cat number D128-500) Plates are kept on shaker for 10 minutes for compete dissolution of crystals and absorbance is recorded at 595 nm using Bio-Rad iMark microplate reader. Data is analyzed in MICROSOFT EXCEL® software. Relative survival is calculated with respect to absorbance of control (untreated cells) to determine the effect of transfection as well as combination treatment.
(§4) Each data set takes into account any spontaneous cell death which is observed upon transfection with Scramble siRNA; the amount of spontaneous cell death from Scramble siRNA transfection (baseline) is subtracted from the amount of cell death observed in each siRNA transfection reaction to yield a Net Percent (Net %) cell death after accounting for Scrambled siRNA-induced cell death.
(§5) Cells are cultured and maintained at 37° C. in a humidified atmosphere containing 5% CO2 as described above. […] After 12-18 hours (Day 1), cells are transfected with Scramble or MADD siRNA at 10 nM concentration. The sequences of siRNAs (double stranded) used are:
as §3, with “D128-500).” for “D128-500)”
as §2, with “24 h,” for “24 hours,”, “48 h” for “48 hours”

[2] = tested on: 8505C thyroid cancer cells; settings: 8505C; Cisplatin 2.5 μM; siRNA 10 nM; 48 hours post Cisplatin treatment
Procedure: as §5
as §2, with “24 h,” for “24 hours,”, “48 h” for “48 hours”
as §3, §4, §2

[3] = tested on: HTH7 thyroid cancer cells; settings: siRNA 10 nM
Procedure: as §5, §2, §3, §4

[4] = tested on: PLC/PRF/5 hepatic cancer cells; settings: siRNA 10 nM
Procedure: as §1, §2, §3, §4, §5
as §3, with “D128-500).” for “D128-500)”
as §2, with “24 h,” for “24 hours,”, “48 h” for “48 hours”

H2227 lung cancer cells = settings: siRNA 10 nM
Procedure: (§6) Cells are cultured and maintained at 37° C. in a humidified atmosphere containing 5% CO2 as described above. On Day 0, Cells are seeded in […] tissue culture dishes (Corning; Cat Number: 353003) to attain 60-70% confluence. In parallel, cells are also seeded in one 96-well plate (Corning; Cat number: 353072) for analysis of survival before reseeding. After 12-18 hours (Day 1), cells are transfected with Scramble or MADD siRNA at 10 nM concentration. The sequences of siRNAs (double-stranded) used are:
as §2
(§7) An MTT assay is performed to determine relative survival after drug treatment as described above. MTT (3-[4,5-Dimethylthiazol-2-yl]-2,5-diphenyltetrazolium bromide; Thiazolyl blue) is purchased from Sigma Aldrich (Cat number: M5655). MTT is dissolved in sterile DPBS at the concentration of 5 mg/ml and filtered through […] syringe filter (Corning; Cat number: 431220). Ten μl of MTT solution is added per well of 96-well plate. Plates are incubated for 2 hours at 37° C. in the humidified CO2 incubator. After 2 hours, media is aspirated using vacuum inside the biosafety hood. Purple colored crystals formed in viable cells are dissolved by adding 100 μl of Dimethyl sulfoxide (Thermo Fisher Scientific; Cat number D128-500) Plates are kept on shaker for 10 minutes for compete dissolution of crystals and absorbance is recorded at 595 nm using Bio-Rad iMark microplate reader. Data is analyzed in MICROSOFT EXCEL® software. Relative survival is calculated with respect to absorbance of control (untreated cells) to determine the effect of transfection as well as combination treatment.
as §4
as §6, with “(double stranded)” for “(double-stranded)”
as §2, with “added. Doxorubicin was added at a working concentration of 5.0 nM, 9.375 nM, 0.075 μM, 0.25 μM, 0.5 μM, and 0.8 μM.” for “added.”
(§8) An MTT assay is performed to determine relative survival after drug treatment as described above. MTT (3-[4,5-Dimethylthiazol-2-yl]-2,5-diphenyltetrazolium bromide; Thiazolyl blue) is purchased from Sigma Aldrich (Cat number: M5655). MTT is dissolved in sterile DPBS at the concentration of 5 mg/ml and filtered through […] syringe filter (Corning; Cat number: 431220). Ten μl of MTT solution is added per well of 96-well plate. Plates are incubated for 2 hours at 37° C. in the humidified CO2 incubator. […]

[5] = tested on: K562 chronic myelogenous leukemia cells; settings: siRNA 10 nM
Procedure: as §6, §2, §7, §4
as §6, with “(double stranded)” for “(double-stranded)”
as §2, with “added. Doxorubicin was added at a working concentration of 5.0 nM, 9.375 nM, 0.075 μM, 0.25 μM, 0.5 μM, and 0.8 μM.” for “added.”
as §8

[6] = tested on: SU.86.86 pancreatic cancer cells; settings: Doxorubicin 5 nM, siRNA 10 nM, 24 hours post Doxorubicin treatment
Procedure: as §6, §2, §7, §4
as §6, with “(double stranded)” for “(double-stranded)”
as §2, with “added. Doxorubicin was added at a working concentration of 5.0 nM, 9.375 nM, 0.075 μM, 0.25 μM, 0.5 μM, and 0.8 μM.” for “added.”
as §8

[7] = tested on: JIMT1 breast cancer cells; settings: Doxorubicin 0.075 μM, siRNA 10 nM, 24 hours post Doxorubicin treatment
Procedure: as §6, with “(double stranded)” for “(double-stranded)”
as §2, with “added. Doxorubicin was added at a working concentration of 5.0 nM, 9.375 nM, 0.075 μM, 0.25 μM, 0.5 μM, and 0.8 μM.” for “added.”
as §7, with “D128-500).” for “D128-500)”
as §4

[8] = tested on: N87 gastric carcinoma cells; settings: Doxorubicin 0.8 μM, siRNA 10 nM, 72 hours post Doxorubicin treatment
Procedure: as §6, with “(double stranded)” for “(double-stranded)”
as §2, with “added. Doxorubicin was added at a working concentration of 5.0 nM, 9.375 nM, 0.075 μM, 0.25 μM, 0.5 μM, and 0.8 μM.” for “added.”
as §7, with “D128-500).” for “D128-500)”
as §4

H522 lung cancer cells = settings: Gemcitabine 8.2 nM, siRNA 10 nM, 48 hours post Gemcitabine treatment
Procedure: as §6, §2, §7, §4
as §6, with “(double stranded)” for “(double-stranded)”
as §7, with “D128-500).” for “D128-500)”, “Relative survival is calculated with respect to absorbance of control (untreated cells) to determine the effect of transfection as well as combination treatment.” left out

[9] = tested on: OVCAR3 ovarian cancer cells; settings: siRNA 10 nM
Procedure: as §6, §2, §7, §4
as §6, with “(double stranded)” for “(double-stranded)”
as §7, with “D128-500).” for “D128-500)”, “Relative survival is calculated with respect to absorbance of control (untreated cells) to determine the effect of transfection as well as combination treatment.” left out

[10] = 5-flurouracil 25 μM, 72 hours post 5-flurouracil treatment
[11] = Cisplatin 1.25 μM, 72 hours post Cisplatin treatment
[12] = Cisplatin 5 μM, 24 hours post Cisplatin treatment
[13] = Cisplatin 1.875 μM, 24 hours post Cisplatin treatment
[14] = Doxorubicin 9.375 nM, 48 hours post Doxorubicin treatment
[15] = Doxorubicin 0.25 μM, 72 hours post Doxorubicin treatment
[16] = Doxorubicin 0.5 μM, 48 hours post Doxorubicin treatment
[17] = Gemcitabine 25 nM, 48 hours post Gemcitabine treatment
[18] = Gemcitabine 0.1 μM, 48 hours post Gemcitabine treatment
[19] = Gemcitabine 1 μM, 48 hours post Gemcitabine treatment
[20] = Gemcitabine 0.03125 μM, 24 hours post Gemcitabine treatment

O=c1[nH]cc(F)c(=O)[nH]1 [5-flurouracil]
Net % cell death after accounting for Scrambled siRNA [1, 10]: 22%
Observed % Cell death [1, 10]: 22%

N.N.[Cl][Pt][Cl] [Cisplatin]
Net % cell death after accounting for Scrambled siRNA [2]: 19%
Observed % Cell death [2]: 19%
Net % cell death after accounting for Scrambled siRNA [3, 11]: 0%
Observed % Cell death [3, 11]: 0%
Net % cell death after accounting for Scrambled siRNA [3, 12]: 13%
Observed % Cell death [3, 12]: 13%
Net % cell death after accounting for Scrambled siRNA [4, 13]: 41%
Observed % Cell death [4, 13]: 41%

COc1cccc2c1C(=O)c1c(O)c3c(c(O)c1C2=O)C[C@@](O)(C(=O)CO)C[C@@H]3O[C@H]1C[C@H](N)[C@H](O)[C@H](C)O1 [Doxorubicin]
Net % cell death after accounting for Scrambled siRNA (H2227 lung cancer cells; [14]): 3%
Observed % Cell death (H2227 lung cancer cells; [14]): 3%
Net % cell death after accounting for Scrambled siRNA [5, 15]: 11%
Observed % Cell death [5, 15]: 11%
Net % cell death after accounting for Scrambled siRNA [5, 16]: 0%
Observed % Cell death [5, 16]: 0%
Net % cell death after accounting for Scrambled siRNA [6]: 36%
Observed % Cell death [6]: 36%
Net % cell death after accounting for Scrambled siRNA [7]: 17%
Observed % Cell death [7]: 17%
Net % cell death after accounting for Scrambled siRNA [8]: 38%
Observed % Cell death [8]: 38%

Nc1ccn([C@@H]2O[C@H](CO)[C@@H](O)C2(F)F)c(=O)n1 [Gemcitabine]
Net % cell death after accounting for Scrambled siRNA (H2227 lung cancer cells; [17]): 15%
Observed % Cell death (H2227 lung cancer cells; [17]): 15%
Net % cell death after accounting for Scrambled siRNA (H522 lung cancer cells): 4%
Observed % Cell death (H522 lung cancer cells): 4%
Observed % Cell death ([9]; Gemcitabine 0.0125 μM, 72 hours post Gemcitabine treatment): 19%
Net % cell death after accounting for Scrambled siRNA [9, 18]: 28%
Observed % Cell death [9, 18]: 28%
Net % cell death after accounting for Scrambled siRNA [1, 19]: 38%
Observed % Cell death [1, 19]: 38%
Net % cell death after accounting for Scrambled siRNA [4, 20]: 1%
Observed % Cell death [4, 20]: 1%
